Columns and labels:
[1] = tested on: MmpL3 over- (+ATc) expressing Mtb H37Rv; type: cell-based, M. tuberculosis
[2] = tested on: 227-resistant mutants of M. tuberculosis H37rv; type: cell-based
[3] = tested on: M. tuberculosis H37Rv; type: cell-based

| Compound | susceptibility shift in MmpL3 over-expressing strain [1] | IC50 [2] | estimated frequency of resistance [3] |
| --- | --- | --- | --- |
| CC[C@@H](CO)NCCN[C@@H](CC)CO [Ethambutol] | no significant shifts |  |  |
| O=C(Nc1ccc(Cl)c(C(F)(F)F)c1)NC1CCCCC1 [Compound 227] |  | 3.3 µM | 1.5 × 10^−7 |

Reference: paper PMC12041881, “Tailored phenyl ureas eradicate drug-resistant Mycobacterium tuberculosis by targeting mycolic acid cell wall assembly” (Chemical Science, 2025)
